Patent publication US10501503B2, “Modified membrane permeability” (Cathay Biotech Inc., priority 2015, dated 2019)

Key:
[1] = test system: H. alvei; assay: Cadaverine inhibits gram-negative bacteria: lysine-to-cadaverine conversion after pre-incubation in cadaverine; type: cell-based, Hafnia alvei; conditions: 3% cadaverine for 24 hours
Description: We studied the affect of cadaverine on the gram-negative bacteria H. alvei. First, H. alvei was transformed with pCIB60 and grown for 24 hours in 50 mL LB medium with ampicillin (100 μg/mL) at 37° C. The following day, 50 mL of the seed culture was added to a 10 L jar fermenter containing […] of fermentation medium (20 g/L glucose, 30 g/L corn steep liquor, 10 g/L yeast extract, 5 g/L ammonium sulfate, 10 g/L MgSO4, 0.05 g/L FeSO4, 0.05 g/L MnSO4, 5 g/L CaCl2, 0.1 g/L ampicillin), and the fermentation proceeded for 18 hours. 10 g of fermentation broth was collected, centrifuged at 6000 rpm for 5 min at room temperature, and the biomass was recovered. 0.5 g of biomass was added to a 50 mM potassium phosphate buffer with either 0% or 3% cadaverine for 24 hours. After incubation, each sample was centrifuged at 6000 rpm for 5 min at room temperature, the biomass was recovered, and fresh potassium phosphate buffer with lysine-HCl and PLP to a final concentration of 200 g/L and 0.1 mM, respectively, was added. The initial pH of the reaction as adjusted to 5.0, and the reaction was allowed to proceed for 120 minutes at 37° C. […] The cadaverine concentration in each sample was quantified using NMR, and yield was calculated by dividing the molar amount of cadaverine produced by the molar amount of lysine added.

[2] = test system: E. coli; conditions: Qian et al., Biotechnology and Bioengineering 108:93-103, 2010; cited from earlier work

In the case of `NCCCCCN` [cadaverine], the “Effect of cadaverine pre-incubation on the cells' ability to convert lysine to cadaverine” value [1] is listed as “significant decrease in conversion ability” and the “Effect of cadaverine on growth of E. coli” value [2] is listed as “inhibits growth”.
